Source: US7074804B2, “CCI-779 Isomer C” (Wyeth, priority 2003, dated 2006)
In brackets after ≈: the same amount, converted by molar mass. Read-outs that look alike come from different tables or passages of the source.

Experiments:
Aspergillus fumigatus = experiment: Antifungal activity, microtiter broth dilution MIC; type: cell-based; settings: Aspergillus fumigatus strain ATCC 26933, RPMI 1640, 35° C., 24–48 h
Method: (§1) Antifungal activity for CCI-779 Isomer C was established by evaluating it against several strains of fungi. Briefly the following procedure was used to evaluate such activity. A 96 well microtiter plate was filled (50 μL/well) with RPMI 1640. The compounds to be evaluated were placed in appropriate wells and serial diluted in successive wells to provide several dilutions. The concentration ranged from […]. An adjusted inoculum of fungi (50 μL) was added to each well and plates were incubated at 35° C. for 24–48 h.

Aspergillus niger = experiment: Antifungal activity, microtiter broth dilution MIC; type: cell-based; settings: RPMI 1640, 35° C., 24–48 h
Method: as §1

Candida albicans = experiment: Antifungal activity, microtiter broth dilution MIC; type: cell-based; settings: RPMI 1640, 35° C., 24–48 h
Method: as §1

Candida krussii = experiment: Antifungal activity, microtiter broth dilution MIC; type: cell-based; settings: Candida krussii strain 94-2, RPMI 1640, 35° C., 24–48 h
Method: as §1

Candida lusitaniae = experiment: Antifungal activity, microtiter broth dilution MIC; type: cell-based; settings: Candida lusitaniae strain 94-3, RPMI 1640, 35° C., 24–48 h
Method: as §1

Candida parapsilosis = experiment: Antifungal activity, microtiter broth dilution MIC; type: cell-based; settings: RPMI 1640, 35° C., 24–48 h
Method: as §1

Candida pseudotropicalis = experiment: Antifungal activity, microtiter broth dilution MIC; type: cell-based; settings: Candida pseudotropicalis strain ATCC 28838, RPMI 1640, 35° C., 24–48 h
Method: as §1

Candida rugosa = experiment: Antifungal activity, microtiter broth dilution MIC; type: cell-based; settings: Candida rugosa strain 94-10, RPMI 1640, 35° C., 24–48 h
Method: as §1

Candida tropicalis = experiment: Antifungal activity, microtiter broth dilution MIC; type: cell-based; settings: RPMI 1640, 35° C., 24–48 h
Method: as §1

[1] = Stability of CCI-779 Isomer C (solid form, aqueous suspension, formulation); type: physicochemical
[2] = tested on: histologically diverse tumor cells; settings: cited from earlier work
human tumor xenografts = settings: nude mice, diverse histological types; cited from earlier work
[3] = Candida parapsilosis strain 94-9
[4] = Candida tropicalis strain 94-13
[5] = Candida albicans strain ATCC 90028
[6] = Candida parapsilosis strain 94-8
[7] = Candida parapsilosis strain ATCC 90018
[8] = Candida tropicalis strain 94-14

Row | Structure (SMILES) | MIC (Aspergillus niger; Aspergillus niger strain S399) | MIC (Candida albicans; Candida albicans strain 1117) | MIC (Candida parapsilosis; [3]) | MIC (Candida tropicalis; [4]) | MIC (Aspergillus fumigatus) | MIC (Aspergillus niger; Aspergillus niger strain S430) | MIC (Candida albicans; Candida albicans strain 1063) | MIC (Candida albicans; [5]) | MIC (Candida krussii) | MIC (Candida lusitaniae) | MIC (Candida parapsilosis; [6]) | MIC (Candida parapsilosis; [7]) | MIC (Candida pseudotropicalis) | MIC (Candida rugosa) | MIC (Candida tropicalis; [8]) | also measured
1 | CO[C@H]1C[C@@H]2CC[C@@H](C)C(=O)C(O)(O2)C(=O)N2CCCC[C@H]2C(=O)O[C@H]([C@H](C)C[C@@H]2CC[C@@H](OC(=O)C(C)(CO)CO)[C@H](OC)C2)CC(=O)[C@H](C)/C=C(\C)[C@@H](O)[C@@H](OC)C(=O)[C@H](C)C[C@H](C)/C=C/C=C/C=C/1C (single isomer, unassigned) [CCI-779 Isomer C] | 32 mg/L (≈ 31.1 µM) | 4 mg/L (≈ 3.88 µM) | 4 mg/L (≈ 3.88 µM) | 4 mg/L (≈ 3.88 µM) |  |  |  |  |  |  |  |  |  |  |  | MIC (Aspergillus fumigatus; ATCC26933, read-out: MIC): > 32 mg/L; MIC (Aspergillus niger; Aspergillus niger strain S430, read-out: MIC): 32 mg/L (≈ 31.1 µM); MIC (Candida albicans; ATCC90028, Candida albicans strain ATCC 90028, read-out: MIC): 4 mg/L (≈ 3.88 µM); MIC (Candida albicans; Candida albicans strain 1063, read-out: MIC): 4 mg/L (≈ 3.88 µM); MIC (Candida krussii; read-out: MIC): 4 mg/L (≈ 3.88 µM); MIC (Candida lusitaniae; Clavispora lusitaniae, read-out: MIC): 8 mg/L (≈ 7.76 µM); MIC (Candida parapsilosis; Lodderomyces parapsilosis, ATCC90018, Candida parapsilosis strain ATCC 90018, read-out: MIC): 4 mg/L (≈ 3.88 µM); MIC (Candida parapsilosis; Lodderomyces parapsilosis, Candida parapsilosis strain 94-8, read-out: MIC): 4 mg/L (≈ 3.88 µM); MIC (Candida pseudotropicalis; Kluyveromyces marxianus, ATCC28838, read-out: MIC): 4 mg/L (≈ 3.88 µM); MIC (Candida rugosa; Diutina rugosa, read-out: MIC): 16 mg/L (≈ 15.5 µM); MIC (Candida tropicalis; Candida tropicalis strain 94-14, read-out: MIC): 4 mg/L (≈ 3.88 µM); stability with citric acid ([1]; citric acid at a concentration of less than 0.01% w/v in formulation): enhanced the stability; stability under storage conditions ([1]; formulated in solid form): stable under storage conditions for extended periods of time; stability ([1]; in an aqueous suspension): stable
2 | CO[C@H]1C[C@@H]2CC[C@@H](C)[C@@](O)(O2)C(=O)C(=O)N2CCCC[C@H]2C(=O)O[C@H]([C@H](C)C[C@@H]2CC[C@@H](OC(=O)C(C)(CO)CO)[C@H](OC)C2)CC(=O)[C@H](C)/C=C(\C)[C@@H](O)[C@@H](OC)C(=O)[C@H](C)C[C@H](C)/C=C/C=C/C=C/1C (single isomer, unassigned) [CCI-779, Rapamycin 42-ester with 3-hydroxy-2-(hydroxymethyl)-2-methylpropionic acid] |  |  |  |  |  |  |  |  |  |  |  |  |  |  |  | growth of tumor cells in vitro ([2]; CNS cancer, leukemia (T-cell), breast, prostate, melanoma lines most sensitive): inhibit the growth; cell cycle effect ([2]; in vitro): arrested cells in the G1 phase of the cell cycle; activity against human tumor xenografts (human tumor xenografts): has activity
3 | C[C@@H]1[C@H](O)[C@@H](C)/C=C/C=C/C=C/C=C/C=C/C=C/C=C/[C@H](O[C@@H]2O[C@H](C)[C@@H](O)[C@H](N)[C@@H]2O)C[C@@H]2O[C@](O)(C[C@@H](O)C[C@@H](O)[C@H](O)CC[C@@H](O)C[C@@H](O)CC(=O)O[C@H]1C)C[C@H](O)[C@H]2C(=O)O [Amphotericin B] | 0.50 mg/L (≈ 0.541 µM) | 0.12 mg/L (≈ 0.13 µM) | 0.12 mg/L (≈ 0.13 µM) | ≦0.06 μg/mL | 0.25 mg/L (≈ 0.271 µM) | 0.25 mg/L (≈ 0.271 µM) | ≦0.06 μg/mL | 0.12 mg/L (≈ 0.13 µM) | 0.12 mg/L (≈ 0.13 µM) | ≦0.06 μg/mL | ≦0.06 μg/mL | ≦0.06 μg/mL | ≦0.06 μg/mL | 0.25 mg/L (≈ 0.271 µM) | ≦0.06 μg/mL | 
4 | C[C@@H]1[C@H](O)[C@@H](C)/C=C/C=C/CC/C=C/C=C/C=C/C=C/C(O[C@H]2O[C@H](C)[C@@H](O)[C@H](N)[C@@H]2O)CC2O[C@](O)(CC(O)C(O)CCC(O)CC(O)CC(O)CC(=O)O[C@H]1C)CC(O)C2C(=O)O (stereo partly drawn) [Nystatin] | 2 mg/L (≈ 2.16 µM) | 1 mg/L (≈ 1.08 µM) | 1 mg/L (≈ 1.08 µM) | 1 mg/L (≈ 1.08 µM) | 2 mg/L (≈ 2.16 µM) | 1 mg/L (≈ 1.08 µM) | 1 mg/L (≈ 1.08 µM) | 1 mg/L (≈ 1.08 µM) | 1 mg/L (≈ 1.08 µM) | 1 mg/L (≈ 1.08 µM) | 2 mg/L (≈ 2.16 µM) | 2 mg/L (≈ 2.16 µM) | 1 mg/L (≈ 1.08 µM) | 1 mg/L (≈ 1.08 µM) | 1 mg/L (≈ 1.08 µM) | 
